Laboratory results taken from patent US20060088545A1, “Use of inhibitors of the protease of the human immunodeficiency virus (hiv) to block cell migration and/or invasion, tissue infiltration and oedema for the therary of diseases associated therewith” (priority 2001, published 2006).

Legend:
[1] = tested on: EA-hy 926 cells; test: Tumour angiogenic lesions induced by Ea-hy 926 cells in nude mice, no drug pre-treatment; assay type: in vivo; details: treatment started on the day of cell inoculation, 5 days
Experimental: Mice were inoculated subcutaneously into the lower back with Ea-hy 926 cells (3×10^6 cells/animal in 0.2 ml of 10% FBS RPMI 1640) or with the resuspension medium, all mixed with 0.2 ml of growth factor-depleted matrigel (BD Biosciences, Bedford, Mass.) prior to inoculation as described above. […] Treatment was then continued for 5 days, until sacrifice. The size of the lesions present at the injection site was evaluated daily by caliper measurement. External lesion area was then calculated as the product of the two major lesion diameters. The mean size (cm^2) of the lesions present at the injection site is shown.
To determine whether HIV-PI could inhibit the growth of a malignant angiogenic tumour, nude mice were inoculated with the EA-hy 926 cell line. This cell line is derived from a hybrid between H-UVEC and human lung adeno-carcinoma cells (Edgell et al, PNAS 1983), retains most of the endothelial cell markers and is used as an angiogenic tumour model (Albini et al, Nat Med 1996; Albini et al, PNAS 1995; Cai et al, Lab Invest 1999). HIV-PI were administered to nude mice starting 2 days prior to tumour cell inoculation. […] Similarly, the external tumour area was reduced in mice treated with both HIV-PI (P<0.05), reaching the size of the negative controls (Table 7). […] Inhibition of tumour growth was also observed in the absence of drug pre-treatment (FIG. 25). […]

[2] = tested on: lung carcinoma cells (A549); test: Cell growth assay of A549 cells; assay type: cell-based, human; details: 10 μM; 4 days
Experimental: Shown is the result of a representative cell growth assay performed on the lung carcinoma cells. Human lung carcinoma cells (A549; ATCC) were plated in triplicate (8×10^4 cells/well) in 12-well plates. […] Ensoli et al., 1994b): For all the in vitro studies HIV-PI as endotoxin-free pure powder (a kind gift of Merck Sharp & Dohme and Roche) were resuspended in distilled water. Assays were repeated at least three times.

[3] = tested on: breast carcinoma (MDA-MB468) cells; test: Tumour lesions induced by MDA-MB468 cells in nude mice; assay type: in vivo; details: 5×10^6 cells/site; daily treatment
Experimental: FIG. 28. […] The treatment with HIV-PI or saline solution continued until sacrifice. The size of the lesions present at the injection site was evaluated daily by caliper measurement. External lesion area was then calculated as the product of the two major lesion diameters. The mean size (cm^2) of the lesions present at the injection site is shown.
To determine whether HIV-PI could inhibit the growth of malignant solid and lymphoid tumours, nude mice were inoculated with hepato-carcinoma cells (SK-Hep-1), lung carcinoma cells (A549), breast adeno-carcinoma cells (MDA-MB-468), myelo-monocytic leukaemia cells (U937), and T lymhocytic leukaemia cells (Jurkat).

[4] = tested on: hepato-carcinoma (SK-Hep-1) cells; test: Invasion assay of SK-Hep-1 cells in response to bFGF; assay type: cell-based, human; details: 0.1, 1 or 10 μM
Experimental: (§1) The invasion assays were performed in the Boyden chamber. Polycarbonate filters (8 μM pores; Nucleoprobe, Cabin John, Md.) were coated first with collagen IV and then with Matrigel (Collaborative Biomedical Products) as described previously (Barillari et al., 1999b). […] Human recombinant bFGF (50 ng/ml) was placed in the lower compartment as chemo-attractant. […] Louis, Mo.). Ten random filter fields were counted by light microscopy as described previously (Barillari et al., 1999b).

[5] = tested on: primary macrovascular (umbilical vein) endothelial cells (HUVEC); test: Proliferation assay of HUVEC, basal or bFGF-induced; assay type: cell-based, human; details: for basal or bFGF-induced proliferation (number of cells): 0.1, 1 or 10 μM, 5 days, bFGF 10 ng/ml
Experimental: Human endothelial cells from the umbilical vein (HUVEC, Blo-Whittaker, Verviers, Belgium) were plated in triplicate (1.5×10^4 cells/well) in plates of 12 wells previously covered with gelatine. The next day the cells were incubated for 4 hours in a medium without serum and cultivated in RPMI 1640 medium (Life Technologies, Eragny, France) with the addition of 10% of foetal bovine serum (FBS) together with bFGF in PBS buffer (10 ng/ml) or PBS buffer alone.
The concentrations of HIV-PI used were the same as those present in plasma of treated patients (Deeks et al., 1997).

[6] = tested on: KS cells; test: KS cell adhesion to fibronectin; assay type: cell-based, human
[7] = tested on: lung carcinoma (A549) cells; test: Invasion assay of A549 cells in response to bFGF; assay type: cell-based, human; details: 0.1, 1 or 10 μM
Experimental: as §1, with “([…]” for “(8”

[8] = tested on: KS cells; test: KS cell proliferation (trypan blue dye exclusion); assay type: cell-based, human; details: 7 days
[9] = tested on: KS cells; test: KS cell invasion of matrigel, Boyden chamber, bFGF chemo-attractant; assay type: cell-based, human; details: KS3, KS8, KS12 strains; dose-dependent
Experimental: Both drugs inhibited the capacity of the KS cells to invade the Matrigel membrane in a dose-dependent manner. In particular, both the HIV-PI inhibited invasion as compared to the levels observed in control KS cells (p<0.05).
The assay was performed as described in FIG. 3. […] The cells were harvested and then plated in duplicate (5×10^5 in a culture medium containing 0.05% BSA) in the upper compartment of the Boyden chamber, always in the presence of HIV-PI or buffer. bFGF (20 ng/ml) was placed in the bottom compartment as a chemo-attractant.
After 6 hours the cells that invaded the matrigel membrane were stained and counted as described in the key to FIG. 3.
In contrast, both drugs inhibited KS cell capability of invading a matrigel substrate in a dose-dependent manner. In particular, both HIV-PI inhibit the invasion of KS cells by 30-40% (p<0.05) (Table 4 and FIG. 13).
Migration and invasion assays were carried out essentially as detailed in the key to FIGS. 2 and 3.

SMILES | regression of tumour angiogenic lesions (lesion size) [1] | proliferation [2] | development of tumour lesions (lesion size) [3] | invasive capacity in response to bFGF [4] | survival of macrovascular endothelial cells [5] | basal or bFGF-induced proliferation (number of cells) [5] | capability of the KS cells to adhere to a substrate of fibronectin [6] | invasive capacity in response to bFGF [7] | KS cell proliferation (viable cells, trypan blue) [8] | invasive capacity of KS cells [9]
CC(C)(C)NC(=O)[C@@H]1CN(Cc2cccnc2)CCN1C[C@@H](O)C[C@@H](Cc1ccccc1)C(=O)N[C@H]1c2ccccc2C[C@H]1O [Indinavir, indinavir] | promote the regression | do not interfere | inhibit | inhibit | no effect | no effect | do not inhibit | inhibit | no effect | inhibit
CC(C)(C)NC(=O)[C@@H]1C[C@@H]2CCCC[C@@H]2CN1C[C@@H](O)[C@H](Cc1ccccc1)NC(=O)[C@H](CC(N)=O)NC(=O)c1ccc2ccccc2n1 [Saquinavir, saquinavir] | promote the regression | do not interfere | inhibit | inhibit | no effect | no effect | do not inhibit | inhibit | no effect | inhibit
